Values after ≈ are worked out from the molar mass of the structure shown. Read-outs that look alike come from different tables or passages of the source.

Series [1] deals with phencyclidine-induced hypermotility. The experiment in a line: Phencyclidine-induced hypermotility in rats. It is filed as in vivo. The settings on record: Rattus norvegicus; male Harlan-Wistar rats, percent inhibition, linear regression; read-out: PCP (ED50 mg/kg).
Experimental: Phencyclidine-Induced Hypermotility in Rats
Spontaneous locomotor activity was measured using a six-channel activity monitor manufactured by Experimetria Ltd. (Budapest, HU). […] Additional arrays of photocells (30 pairs) were placed along opposite sides of the cage at different heights (6.5 cm, 12 cm, 18 cm and 23 cm) in order to detect rearing responses.
Test compounds were administered to study animals either orally or subcutaneously, with ten animals per treatment group. In these studies, male Harlan-Wistar rats (Toxi-Coop, Budapest, HU) weighing 190-210 grams were used. After oral administration of test compound or vehicle, animals were individually habituated to the activity monitors for 30 minutes. In the cases of subcutaneous administration of test compounds, rats were first habituated for 15 minutes to the activity monitors, then treated with the test compound or vehicle followed by replacing them into the activity monitors for an additional 15-minute period of habituation. […]
Data were analyzed using GraphPad® Prism® 9 software (GraphPad, San Diego, CA, USA). […] Drug effect was evaluated using Analysis of Variance (ANOVA, or Welch's ANOVA when appropriate) followed by Dunnett's multiple comparisons test. When appropriate, the ED50 value was determined from percent inhibition data from linear regression analysis.
The next series deals with human 5-HT2A receptors (Homo sapiens (Human), UniProt P28223). Briefly: Antagonism at human 5-HT2A receptors, fluorometric Ca2+ detection. It is filed as cell-based. The settings on record: CHO-K1 cells with Gα16, against EC80 5-HT; read-out: 5-HT2A Ca2+ pIC50 (converted).
Chain of human 5-HT2A receptors (P28223 whole entry): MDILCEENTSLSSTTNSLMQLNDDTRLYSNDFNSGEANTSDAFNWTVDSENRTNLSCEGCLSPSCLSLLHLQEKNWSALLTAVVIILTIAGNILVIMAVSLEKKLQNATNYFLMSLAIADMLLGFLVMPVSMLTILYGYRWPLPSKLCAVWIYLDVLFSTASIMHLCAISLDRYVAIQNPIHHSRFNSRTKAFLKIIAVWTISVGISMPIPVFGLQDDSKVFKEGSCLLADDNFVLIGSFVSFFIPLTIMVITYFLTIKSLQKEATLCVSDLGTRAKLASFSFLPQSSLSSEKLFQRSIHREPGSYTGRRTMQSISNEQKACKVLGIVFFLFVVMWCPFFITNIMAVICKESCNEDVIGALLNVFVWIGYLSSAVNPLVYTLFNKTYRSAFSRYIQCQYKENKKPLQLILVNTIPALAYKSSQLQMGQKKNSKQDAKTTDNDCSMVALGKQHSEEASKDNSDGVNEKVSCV
The nature of series [2]: Thermodynamic solubility study (37° C., 4 hours). The settings on record: fassgf or other biorelevant, thermodynamic from solid, SIF pH = 6.8, 4 hours, read-out: Thermodynamic sol. It is filed as physicochemical. As to the method:
Thermodynamic Solubility Study (37° C., 4 Hours)
The resulted mixtures/oversaturated solutions are shaken at 37° C. for 4 hrs (to the solution equilibrium) and are filtrated on a Millipore MultiSreen Filter Plate (0.45 μm). Concentrations of the filtrates are determined by LC/UV/MS based on a 5-point calibration. (When the solid material dissolved totally in the aqueous test medium the result should be considered as a minimal value.) Results are shown in Table 2.

Series [3] has as its system apomorphine-induced climbing and sniffing. The experiment in a line: Apomorphine-induced climbing and sniffing in mice. The settings on record: Mus musculus, sc, male CD1 mice, subcutaneous, 1.5 mg/kg apomorphine. It is filed as in vivo.
Experimental: Apomorphine-Induced Climbing and Sniffing in Mice
Male CD1® mice (Envigo, Horst, NL) weighing 24-29 g were used in the experiments (n=12 per treatment group). Climbing and sniffing behavior were measured by visual observation in cylindrical cages.
Immediately after the subcutaneous administration of the vehicle or the test compound, animals were placed into the cages for 10 minutes to habituate. […] After treatment, animals were replaced into the cylindrical cages. The measurement of climbing and sniffing behavior started 10 minutes after the apomorphine treatment (during the 11th minute) and lasted for 16 minutes. Every minute the climbing behavior was scored as follows: four paws on the floor (0 score); forefeet touching the bars (1 score); and four paws grasping the bars (2 score). Animals were also rated for repetitive sniffing as a measure of stereotypy according to the following scale: no sniffing (0 score), moderate sniffing, little snout contact with cage walls or floor (1 score); and constant sniffing, persistent snout contact (2 score).
Data were analyzed using GraphPad Prism 9 software (GraphPad). Scores for both behaviors were tallied for each individual (possible maximum score 32) and group means were calculated. Drug effect was calculated as percent inhibition of the apomorphine-induced behavior. […]
A further series is described as follows: Kinetic solubility study. It counts as physicochemical. The settings on record: PBS pH 7.4 with 1% DMSO, aqueous buffer, kinetic from dmso stock; PBS pH = 7.4, 2 hours, RT, 1% DMSO co-solvent; read-out: Kinetic sol. The protocol: Following shaking of the suspension on an orbital shaker at 300 rpm for 2 hours, the suspension was clarified by vacuum filtration (Multiscreen® Vacuum Manifold; MilliporeSigma). Immediately following the filtration step, […] of the filtrate was transferred into […] of acetonitrile to avoid compound precipitation from the saturated solution. The concentration of the research compound was determined by HPLC-UV-(MS) detection, by using an external standard made from the same batch of research compound.

Series [4] has as its target T1, human D3 receptors (Homo sapiens (Human), UniProt P35462). The experiment in a line: Agonism at human D3 receptors, cAMP detection (HTRF) in HEK293 cells. The settings on record: inhibition of forskolin-stimulated cAMP accumulation, HEK293 cells co-expressing adenylyl cyclase V; read-out: D3 cAMP pEC50 (converted). It counts as cell-based. Background: TR-FRET usually uses a lanthanide donor and a delayed reading to cut background.
Target sequence in this assay (P35462 whole entry): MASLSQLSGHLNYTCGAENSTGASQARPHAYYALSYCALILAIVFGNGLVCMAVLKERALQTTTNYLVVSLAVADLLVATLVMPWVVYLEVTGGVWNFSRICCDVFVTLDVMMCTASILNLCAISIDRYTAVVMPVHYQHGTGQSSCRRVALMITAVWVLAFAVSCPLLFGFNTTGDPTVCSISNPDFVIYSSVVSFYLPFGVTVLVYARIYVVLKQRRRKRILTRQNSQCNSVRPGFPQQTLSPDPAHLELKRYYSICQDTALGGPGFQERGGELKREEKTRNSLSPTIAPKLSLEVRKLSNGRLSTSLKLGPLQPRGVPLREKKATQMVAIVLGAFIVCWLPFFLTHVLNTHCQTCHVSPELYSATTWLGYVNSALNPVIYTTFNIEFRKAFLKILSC
Experimental: Characterization of Agonism at Human D3 Receptors Using Cyclic Adenosine Monophosphate Detection
Agonist activity at human D3 receptors was assayed by cAMP levels in HEK293 cells expressing recombinant human D3 receptors (BioXtal, Saint-Félix, France) stably co-expressing adenylyl cyclase V (ACV) (cell line developed by Gedeon Richter) by homogenous time-resolved fluorescence (HTRF) using the cAMP Gi kit (Cisbio/PerkinElmer). HEK293 cells expressing recombinant human D3 receptors and ACV were cultured in DMEM supplemented with 10% FBS, 1% penicillin-streptomycin antimycotic solution, 1% pyruvate, 100 μg/mL G418 (Thermo Fisher Scientific) and 60 μg/mL hygromycin B and maintained at 37° C. in a humidified atmosphere containing 5% CO2. […]
Results were calculated from the ratio of acceptor fluorescence signal (A665 nm) and donor fluorescence signal (A620 nm)×10^4 and expressed as ΔF % values using the following formula: 100× (ratio sample-ratio negative control)/ratio negative control. In all experiments multiple wells were measured in parallel, and the mean ΔF % values were used for further analysis. Agonist activity values were calculated as percentage of inhibition of forskolin-stimulated cAMP accumulation normalized to the response evoked by a maximally effective concentration of dopamine tested in the same experiment. […]

Series [5] concerns the target T1, human D3 receptors. The experiment in a line: β-arrestin recruitment to human dopamine D3 receptors (PathHunter CHO-K1). It is filed as cell-based. In general terms: Arrestin recruitment assays detect the binding of arrestin to an activated receptor.
Target sequence in this assay (P35462 whole entry, looked up): as the sequence (P35462 whole entry) above
Target sequence in this assay (P32121 whole entry partner, looked up): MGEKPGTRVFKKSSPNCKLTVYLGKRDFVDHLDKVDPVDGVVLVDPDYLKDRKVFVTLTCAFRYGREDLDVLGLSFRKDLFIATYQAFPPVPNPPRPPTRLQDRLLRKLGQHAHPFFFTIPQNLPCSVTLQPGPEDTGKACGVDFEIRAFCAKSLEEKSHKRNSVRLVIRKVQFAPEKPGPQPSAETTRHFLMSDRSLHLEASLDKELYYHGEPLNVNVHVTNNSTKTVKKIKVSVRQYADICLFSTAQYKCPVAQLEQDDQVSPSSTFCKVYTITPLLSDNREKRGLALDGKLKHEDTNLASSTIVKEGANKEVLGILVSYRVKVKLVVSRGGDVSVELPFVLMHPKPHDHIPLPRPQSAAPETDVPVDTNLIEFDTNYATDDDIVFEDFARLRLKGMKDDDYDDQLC
Experimental: Measurement of β-Arrestin Recruitment to Human Dopamine D3 Receptors
PathHunter® CHO-K1 cells expressing tagged human D3 receptors and tagged β-arrestin-2 (Eurofins DiscoverX, Fremont, CA, USA) were seeded into 96-well white-walled clear bottom tissue culture plates in 90 μL AssayComplete™ Cell Plating 2 (CP2) reagent (Eurofins DiscoverX) at a density of 25,000 cells/well and incubated overnight in humidified atmosphere with 5% CO2 at 37° C. Twenty to twenty-four hours later, 20 μL of test compounds or vehicle in CP2 reagent containing 2.2% DMSO was added to the cells and the cells were incubated for 90 minutes at 37° C. Following incubation, 55 μL PathHunter® Detection Reagent (Eurofins DiscoverX) was added per well and the plates were incubated for 60 minutes at 25° C. followed by luminescence detection using a PHERAstar® FS multimode plate reader (BMG Labtech, Ortenberg, Germany).
Raw data were first converted to stimulation % above basal values. The stimulation % above basal values were further converted to % of maximal stimulation of β-arrestin recruitment by 1 μM dopamine. EC50 values were calculated from concentration-response curves of at least six concentrations in duplicates by sigmoidal fitting using Origin® 7.5 software (OriginLab© Corporation, Northampton, MA, USA) and were defined as the concentration of the agonist with half-maximal stimulation.
Series [6] concerns the target T2, human D2L receptors (Homo sapiens (Human), UniProt P14416). Briefly: Agonism of human D2L receptors, cAMP detection (HTRF) in CHO-K1 cells. It is filed as cell-based. The settings on record: inhibition of forskolin-stimulated cAMP accumulation, read-out: D2L cAMP pEC50 (converted).
Target sequence in this assay (P14416 whole entry): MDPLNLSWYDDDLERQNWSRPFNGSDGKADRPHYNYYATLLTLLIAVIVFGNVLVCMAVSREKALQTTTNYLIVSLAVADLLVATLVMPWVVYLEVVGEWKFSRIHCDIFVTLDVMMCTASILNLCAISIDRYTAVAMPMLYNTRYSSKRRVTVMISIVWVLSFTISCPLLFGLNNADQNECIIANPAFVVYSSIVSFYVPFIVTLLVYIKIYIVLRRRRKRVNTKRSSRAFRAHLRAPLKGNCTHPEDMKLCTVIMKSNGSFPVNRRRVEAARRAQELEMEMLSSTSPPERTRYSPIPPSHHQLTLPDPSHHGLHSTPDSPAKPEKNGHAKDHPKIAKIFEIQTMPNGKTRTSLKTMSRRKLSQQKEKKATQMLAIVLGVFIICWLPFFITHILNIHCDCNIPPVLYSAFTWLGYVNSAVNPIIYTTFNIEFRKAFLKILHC
Experimental: Agonist activity at human D2L receptors was assayed by measuring cAMP levels in CHO-K1 cells expressing human D2L receptors (Eurofins DiscoverX, Fremont, CA, USA) by homogenous time-resolved fluorescence (HTRF®) using the cAMP Gi kit (Cisbio/PerkinElmer). CHO-K1 cells expressing human D2L receptors were cultured in Ham's F12 medium supplemented with 10% FBS, 1% penicillin-streptomycin antimycotic solution, and 800 μg/mL G418 (Thermo Fisher Scientific, Waltham, MA, USA) and maintained at 37° C. in a humidified atmosphere containing 5.0% CO2. […] Results were calculated from the ratio of acceptor fluorescence signal (A665 nm) and donor fluorescence signal (A620 nm)×10^4 and expressed as ΔF % values using the following formula: 100×(Ratio Sample-Ratio Negative Control)/Ratio Negative Control. In experiments, all treatments were measured in multiple wells in parallel, and the mean ΔF % values were used for further analysis. Agonist activity values were calculated as percentage of inhibition of forskolin-stimulated cAMP accumulation normalized to the response evoked by a maximally effective concentration of dopamine tested in the same experiment. […]
The target in series [7] is T2, human D2L receptors. The experiment in a line: β-arrestin recruitment to human dopamine D2L receptors (PathHunter CHO-K1). It counts as cell-based. The settings on record: β-arrestin-2 recruitment, CHO-K1 cells, normalized to 30 μM dopamine; read-out: D2L arrestin pEC50 (converted).
Target sequence in this assay (P14416 whole entry, looked up): as the sequence (P14416 whole entry) above
Target sequence in this assay (P32121 whole entry partner, looked up): as the sequence (P32121 whole entry partner, looked up) above
Experimental: Measurement of β-Arrestin Recruitment to Human Dopamine D2L Receptors
PathHunter® CHO-K1 cells expressing tagged human D2L receptors and tagged β-arrestin-2 (Eurofins DiscoverX, Fremont, CA, USA) were seeded into 96-well white-walled clear bottom tissue culture plates in 90 μL/cell AssayComplete™ Cell Plating 2 (CP2) reagent (Eurofins DiscoverX) at a density of 20,000 cells/well. The plates were incubated overnight in a humidified atmosphere with 5% CO2 at 37° C. Twenty to twenty-four hours later, 20 μL of test compound or vehicle in CP2 reagent and containing 2.2% DMSO was added to the cells, and they were incubated for 90 minutes at 37° C. Then, 55 μL PathHunter® Detection Reagent (Eurofins DiscoverX) was added per well and plates were incubated for 60 minutes at 25° C., followed by luminescence detection using a PHERAstar® FS multimode plate reader (BMG Labtech, Ortenberg, Germany). Raw data were converted to percent stimulation above basal values. Values were further converted to percent of maximal stimulation of β-arrestin recruitment by 30 μM dopamine. EC50 values were calculated from concentration-response curves of at least six concentrations run in duplicates by sigmoidal fitting using Origin® 7.5 software (OriginLab Corporation, Northampton, MA, USA) and were defined as the concentration of the agonist with half-maximal stimulation.

Text for human 5-HT2A receptors: Characterization of Antagonism at Human 5-HT2A Receptors using Fluorometric Ca^2+ Detection
CHO-K1 cells expressing human recombinant 5-HT2A receptors and Gα16 (purchased from Euroscreen Fast, Brussels, BE) in culture were cryopreserved according to established protocols, using 90% FBS/10% DMSO as medium. Prior to the experiment, cells were thawed, resuspended in PowerCHO™ 2 medium (Lonza, Basel, Switzerland) supplemented with 10% fetal bovine serum (FBS), 1% penicillin-streptomycin antimycotic solution, and 1% pyruvate. Cells were seeded in 96-well microplates at a density of 40,000 cells/well and incubated overnight at 37° C. in a humidified atmosphere containing 5.0% CO2. […]
Baseline and agonist-evoked [Ca^2+]i (intracellular Ca^2+) changes were monitored with a FlexStation® II 96 well plate reader (Molecular Devices, San Jose, CA, USA). […] Baseline was recorded for 20 seconds followed by agonist stimulation, when 50 μL 3× concentrated agonist (5-HT at its EC80) solution or assay buffer/vehicle was added to all wells at 75 μL/second using the onboard pipettor, at a height corresponding to 155 μL. Fluorescence was monitored for an additional 20 seconds.
Compounds were evaluated against an EC80 5-HT concentration, as determined on each plate with the built-in curve fitting module of the measurement software (SoftMax® Pro 5.2, Molecular Devices, San Jose, CA, USA). […]

With `CCOCN(C)C(=O)N[C@H]1CC[C@H](CCN2CCN(c3cccc(Cl)c3Cl)CC2)CC1` [Example 1, N′-[(1r,4r)-4-{2-[4-(2,3-dichlorophenyl)piperazin-1-yl]ethyl}cyclohexyl]-N-(ethoxymethyl)-N-methylurea], the ED50 in series [1] is 0.07 mg/kg; in series [3] (apomorphine-induced climbing, read-out: APO (ED50 cl mg/kg)), 0.1 mg/kg; in [3] (apomorphine-induced sniffing, read-out: APO (ED50 sn mg/kg)), 0.4 mg/kg. Besides, the IC50 at human 5-HT2A receptors is 158 nM. Moreover, in [2], the solubility thermodynamic at 4 h is 53.5 ± 0.9 µM (≈ 25.2 µg/mL). The solubility kinetic at 2 h in the series “Kinetic solubility study” worked out at 72.7 ± 3.4 µM (≈ 34.3 µg/mL).

In the case of `COCN(C)C(=O)N[C@H]1CC[C@H](CCN2CCN(c3cccc(Cl)c3Cl)CC2)CC1` [Example 2, N′-[(1r,4r)-4-{2-[4-(2,3-dichlorophenyl)piperazin-1-yl]ethyl}cyclohexyl]-N-(methoxymethyl)-N-methylurea], the EC50 on human D3 receptors [4] is 1.95 nM; at human D3 receptors [5] it was 3.89 nM; on human D2L receptors [6] it was 1.32 nM; at human D2L receptors [7] it was 0.724 nM. For the same molecule, the IC50 on human 5-HT2A receptors was 132 nM. For the same molecule, the solubility thermodynamic at 4 h in series [2] amounted to 147 ± 8.72 µM (≈ 67.3 µg/mL). Moreover, the solubility kinetic at 2 h in “Kinetic solubility study” was 47.7 ± 4.5 µM (≈ 21.8 µg/mL).

For `CCCOCN(C)C(=O)N[C@H]1CC[C@H](CCN2CCN(c3cccc(Cl)c3Cl)CC2)CC1` [Example 3, N′-[(1r,4r)-4-{2-[4-(2,3-dichlorophenyl)piperazin-1-yl]ethyl}cyclohexyl]-N-methyl-N-(propoxymethyl)urea], in [2], the solubility thermodynamic at 4 h stood at 32.7 ± 1.65 µM (≈ 15.9 µg/mL). The solubility kinetic at 2 h in “Kinetic solubility study” stood at 32.4 ± 3.2 µM (≈ 15.7 µg/mL).

For `CCCN(C)C(=O)N[C@H]1CC[C@H](CCN2CCN(c3cccc(Cl)c3Cl)CC2)CC1` [Ref. Ex. 1, N′-[(1r,4r)-4-{2-[4-(2,3-dichlorophenyl)piperazin-1-yl]ethyl}cyclohexyl]-N-methyl-N-propylurea, reference compound], the solubility thermodynamic at 4 h in [2] was 27.7 ± 1.1 µM (≈ 12.6 µg/mL). The solubility kinetic at 2 h in “Kinetic solubility study” was found to be 10.9 ± 1.7 µM (≈ 4.96 µg/mL).

(Values after patent US12168007B1, “Substituted piperazines as dopamine D3/D2 receptor modulators” (Richter Gedeon Nyrt, priority 2023, dated 2024).)
